From patent publication US20220073557A1, “FLUORINATED BILE ACIDS” (NZP UK LIMITED, priority 2018, published 2022) come the findings set out here.

The test system of experiment [1] is sporadic PD patient fibroblasts. The experiment can be described thus: Cellular ATP levels (ATPlite, normalised to CyQUANT DNA content) in sporadic PD patient fibroblasts. It is filed as cell-based. Particulars: Homo sapiens, Fibroblast, 6 sporadic PD patient fibroblasts, 24 h; for EC50: read-out: Cellular ATP levels EC50; for activity at 0.3 µM: max response with highest dose (300 nM), read-out: Cellular ATP levels Top (% of vehicle treated); for activity at 60 pM: max response with lowest dose (0.06 nM), read-out: Cellular ATP levels Bottom (% of vehicle treated). The method, then: (§1) Fibroblasts were cultured in DMEM (Invitrogen) and routinely subcultured every 3-5 days using trypsin to dissociate them.
The ATP protocol is generally as described in Mortiboys et al, “Mitochondrial function and morphology are impaired in parkin-mutant fibroblasts”, Ann Neurol. 2008 November; 64(5):555-65. Briefly, fibroblasts were cultured as and plated into white 384 well plates with 5000 cells per well in 50 μl of media volume. The plates are left overnight in an incubator to allow the fibroblasts to adhere to the plate surface. The following morning the Glucose based medium is replaced with 25 μl of Galactose based medium. The compounds are added to the plates using a ECHO 550 liquid handling system. The wells were dosed to provide an 8-point concentration range of 0.06 nM-300 nM of compound. After dosing the wells are topped up with a further 25 μl of Galactose based medium and then left in an incubator for 24 hours. Following this incubation the medium is removed from the plate and the wells are washed twice with sterile PBS. The wells are filled with 25 μl of Sterile PBS followed by 12.5 μl of Lysis solution from the ATPlite™ Luminescence ATP detection assay system (Perkin Elmer), including 16 cell free wells to use as blank controls. The plate is then placed on a rotary shaker for 5 mins at 700 rpm. Following the shaking 12.5 μl of ATP substrate solution (Perkin Elmer) is added to each well and a further 5 min of shaking. The plate is then placed in darkness for 10 minutes prior to reading. Using a PHERAStar® plate reader, luminescence intensity is recorded. Following the ATP assay the plates are immediately assayed for DNA content in a CyQUANT® assay.
Immediately following The ATP assay DNA content is assessed with the CyQUANT® NF Cell Proliferation Assay Kit (ThermoFisher). CyQUANT® buffer is prepared immediately before the assay and is comprised of 1 ul CyQUANT® dye per ml×1 HBSS solution. 12.5 ul of CyQUANT® buffer is added to each well. Plate left in incubator for 1 hour then read on a PHERAStar® Plate reader with excitation at 497 nm and emission at 520 nm. ATP Quantification for each well is determined using the following formula: […]
(§2) After the assays had been repeated in triplicate per line and compound the data was then inputted into Graph pad Prism 7 software suite where a dose response curve is generated using the default “[Agonist] vs response (three parameters)” equation.
(§3) From this EC50 values, lowest response and maximal response were taken and used to calculate the Geometric mean between the 5 different lines assessed.
Cellular ATP levels were measured in fibroblasts from 6 (Table 3) or 3 (Table 4) patients with sporadic Parkinson's disease when treated with Compounds of the invention or Comparator compounds. The results are shown in Tables 3 and 4, where “Bottom”=max response with lowest dose of compound (0.06 nM) and “top”=max response with highest dose of compound (300 nM).
Background: In ATP-based viability assays light output follows the ATP content of the culture.

The test system is the same in experiment [2]. Description: Mitochondrial membrane potential (MMP, TMRM) in sporadic PD patient fibroblasts. Type of experiment: cell-based. Particulars: Homo sapiens, Fibroblast, 6 sporadic PD patient fibroblasts, 24 h; for EC50: read-out: MMP EC50; for activity at 0.3 µM: max response with highest dose (300 nM), read-out: MMP Top (% of vehicle treated); for activity at 60 pM: max response with lowest dose (0.06 nM), read-out: MMP Bottom (% of vehicle treated). The method, then:
as §1
Fibroblasts were cultured and plated into a Griener black 384 pClear® plate at 10000 cells per well in 50 μl of media volume. The plates are left overnight in an incubator to allow the fibroblasts to adhere to the plate surface. The following morning the Glucose based medium is replaced with 25 μl of Galactose based media. The plates were then dosed with the compounds using an ECHO® 550 liquid handling system. The wells were dosed to provide an 8-point concentration range of 0.06 nM-300 nM of compound. After dosing the wells are topped up with a further 25 μl of Galactose based medium and then left in an incubator for 24 hours. After 24 hours, the medium is removed from the wells and replaced with 25 ul phenol free Minimal essential medium with 100 nM TMRM (Sigma) and 10 μM Hoechst Stain (Sigma). The plate is returned to the incubator for another hour after which the stain medium is removed and replaced with 25 ul Phenol free MEM. The plate is then imaged using an IN Cell high content microscope (GE Healthcare) with 10 fields of view per well in 2 channels, Cy3 excitation 542 nm, emission 604-64 nm; and the DAPI excitation 350 nm, emission 450-55 nm at 37° C. with CO2. After imaging the plate is disposed of and the images are Data mined using the INCell developer Toolkit (GE Healthcare).
as §2, §3
The mitochondrial membrane potential was measured in fibroblasts from 6 (Table 1) or 3 (Table 2) patients with sporadic Parkinson's disease when treated with Compounds of the invention or Comparator compounds. The results are shown in Tables 1 and 2, where “Bottom”=max response with lowest dose of compound (0.06 nM) and “top”=max response with highest dose of compound (300 nM).

Experiment [3] deals with sAD and familial AD (PSEN1 mutants) patient fibroblasts. Description: Total cellular ATP levels in Alzheimer's disease patient fibroblasts. It is filed as cell-based, human. Particulars: 24 hour treatment at 100 nM, 21% restores to control levels.
Method: Data shown in the Table 6 below is the mean increase in ATP levels after 24 hour treatment with compounds at 100 nM concentration.
The subject of experiment [4] is mitochondrial respiratory chain complex I. Description: Complex I assay, left striatum brain homogenate of mice dosed with or without MPTP. Type of experiment: in vivo, mouse. Particulars: left striatum mouse brain homogenate; MPTP alone; FIG. 4. The method, then: Ex vivo mice brain was homogenated in a buffer of 250 mM sucrose, 20 mM HEPES, 3 mM EDTA, pH 7.5 at 4° C. Homogenisation was carried out using a Dounce homogenizer, for cortex samples, and by repetitive passage through a 0.5 mm syringe for isolated striatum. Samples were then incubated with 30 μl of detergent from the AbCam colorimetric Complex I assay kit on ice for 20 minutes. Samples are then centrifuged at 13,000 rpm for 30 mins. Triplicate samples per condition were blocked using the kit blocking buffer on the AbCam colorimetric Complex I assay kit plate for 3 hours. Samples are then washed using the kit wash buffer 3 times before the addition of the kit assay buffer containing NADH and colorimetric dye. The assay plate is read on a plate reader in a kinetic assay programme reading 450 nm in a 30 second interval for 50 minutes.

As to `C[C@H](CCC(=O)O)[C@H]1CC[C@H]2[C@@H]3[C@H](O)C[C@@H]4C[C@@H](O)[C@@H](F)C[C@]4(C)[C@H]3CC[C@]12C` [Compound 2, 2β-fluoro-3β,7α-dihydroxy-5β-cholanic acid], in experiment [1], the EC50 stood at 1.08 nM, the activity at 0.3 µM was determined as 113% and the activity at 60 pM was determined as 79.9%. Also, in experiment [2], the half-maximal effective concentration (EC50) turned out to be 20.8 nM, the activity at 0.3 µM turned out to be 112% and the activity at 60 pM amounted to 107%. The “% increase over vehicle treated (mean increase in ATP levels)” value in experiment [3] worked out at 65%.
As for `C[C@H](CCC(=O)O)[C@H]1CC[C@H]2[C@@H]3[C@H](O)C[C@@H]4C[C@H](O)C(F)(F)C[C@]4(C)[C@H]3CC[C@]12C` [Compound 8, 2,2-difluoro-3α,7α-dihydroxy-5β-cholanic acid], the “% increase over vehicle treated (mean increase in ATP levels)” value in experiment [3] worked out at 65%.
For the compound `C[C@H](CCC(=O)O)[C@H]1CC[C@H]2[C@@H]3[C@@H](O)C[C@@H]4C[C@@H](O)C(F)=C[C@]4(C)[C@H]3CC[C@]12C` [Compound F, 2-fluoro-3β,7β-dihydroxy-5β-chol-1-enic acid, reference compound], in experiment [1], the EC50 was 1.91 nM, the activity at 0.3 µM was 112% and the activity at 60 pM worked out at 99.9%. Also, in experiment [2], the EC50 stood at 0.674 nM, the activity at 0.3 µM was 108% and the activity at 60 pM is 110%.
Consider `C[C@H](CCC(=O)O)[C@H]1CC[C@H]2[C@@H]3C(=O)C[C@@H]4CC(=O)C(F)=C[C@]4(C)[C@H]3CC[C@]12C` [Compound G, 2-fluoro-3,7-dioxo-5β-chol-1-enic acid, reference compound], for which, in experiment [1], the EC50 came to 58.4 nM, the activity at 0.3 µM came to 92.7% and the activity at 60 pM was 83.3%. In addition, in experiment [2], the EC50 came out at 282 nM, the activity at 0.3 µM came to 123% and the activity at 60 pM worked out at 103%.
On to `C[C@H](CCC(=O)O)[C@H]1CC[C@H]2[C@@H]3[C@H](O)C[C@@H]4C[C@H](O)C(F)=C[C@]4(C)[C@H]3CC[C@]12C` [Compound H, 2-fluoro-3α,7α-dihydroxy-5β-chol-1-enic acid, reference compound], for which, in experiment [1], the 50% effective concentration (EC50) stood at 0.125 nM, the activity at 0.3 µM was 121% and the activity at 60 pM came to 87.6%. In experiment [2], the EC50 was determined as 4.58 nM, the activity at 0.3 µM was 109% and the activity at 60 pM turned out to be 99.8%.
Turning to `CN1CC=C(c2ccccc2)CC1` [MPTP, 1-methyl-4-phenyl-1,2,3,6-tetrahydropyridine, reference compound], the “Reduction in complex I activity compared with untreated controls” value in experiment [4] came out at 50%.

For orientation: EC50 means the midpoint of the concentration-response curve.
